# pEC50: −log10 of the molar value. Where two headings read alike, the source gives them in different places.
# Key:
# Type in all cases: cell-based
# SARS-CoV-2 = SARS-CoV-2 antiviral assay (A549-hACE2, Nano luciferase); conditions: A549-hACE2 cells, SARS-CoV2-Nano, MOI 0.025, 48 h, Table 4, read-out: EC50 SARS CoV2
# [1] = tested on: Recombinant respiratory syncytial virus expressing the firefly luciferase protein (RSV-Fluc); assay: microbe, parasite or virus in culture; conditions: Table 4
# [2] = tested on: Respiratory syncytial virus recombinant with luciferase (RSV-Luc5); assay: microbe, parasite or virus in culture; conditions: Table 3
# [3] = tested on: Respiratory syncytial virus (RSV) strain A2; assay: RSV antiviral assay (HEp-2, 96 well); conditions: Table 3
# [4] = tested on: Respiratory syncytial virus (RSV) strain A2; assay: Hep-2 RSV2 384-well assay (EC50-HEP2-384); conditions: HEp-2 cells, RSV A2, MOI=4, 4 days, Table 3
# [5] = Severe acute respiratory syndrome coronavirus 2, 48 h
# [6] = human respiratory syncytial virus, NHBE, 72 h, read-out: EC50 RSVFluc NHBE 96, NHBE cells, RSV-Fluc, MOI of 0.1, three days, 96 well
# [7] = human respiratory syncytial virus, HEp-2, 72 h, read-out: EC50 RSVFluc-Hep2 384, HEp-2 cells, RSV-Luc5, MOI=0.5, 3 days, 384 well
# [8] = read-out: EC50 RSV HEP2 96, HEp-2 cells, RSV A2, MOI=4, 4 days, 96 well
# [9] = read-out: EC50 RSVFluc NHBE 96, NHBE cells, RSV-Fluc, MOI of 0.1, three days, 96 well
# [10] = read-out: EC50 RSVFluc-Hep2 384, HEp-2 cells, RSV-Luc5, MOI=0.5, 3 days, 384 well
SMILES,pEC50 (SARS-CoV-2; [5]),"pEC50 [1, 6]","pEC50 [2, 7]",pEC50 (SARS-CoV-2),"pEC50 [2, 10]",other results
"C[C@H](NP(=O)(OC[C@H]1O[C@@](C#N)(c2ccc3c(=N)n(COP(=O)(O)O)cnn23)[C@H](O)[C@@H]1O)Oc1cccc2ccccc12)C(=O)OC1CC2(CCC2)C1 (stereo partly drawn) [Example 177, spiro[3.3]heptan-2-yl ((((2R,3S,4R,5R)-5-cyano-3,4-dihydroxy-5-(4-imino-3-((phosphonooxy)methyl)-3,4-dihydropyrrolo[2,1-f][1,2,4]triazin-7-yl)tetrahydrofuran-2-yl)methoxy)(naphthalen-1-yloxy)phosphoryl)-L-alaninate]",6.39,7.80,7.77,,,
"CCC(CC)COC(=O)[C@H](C)NP(=O)(OC[C@H]1O[C@@](C#N)(c2ccc3c(N)ncnn23)[C@H](O)[C@@H]1O)Oc1ccc(C(C)(C)C)c2ccccc12 (single isomer, unassigned) [Example 170a]",6.02,,5.85,,,
"CC(C)C(=O)O[C@H]1[C@@H](OC(=O)C(C)C)[C@](C#N)(c2ccc3c(N)ncnn23)O[C@@H]1COP(=O)(N[C@@H](C)C(=O)OC1CC2(CCC2)C1)Oc1ccccc1 (single isomer, unassigned) [Example 46a]",6.60,8.25,7.52,,,
"CC(=O)O[C@H]1[C@@H](OC(C)=O)[C@](C#N)(c2ccc3c(N)ncnn23)O[C@@H]1COP(=O)(N[C@@H](C)C(=O)OC1CC2(CCC2)C1)Oc1cccc2ccccc12 (single isomer, unassigned) [Example 83a]",7.31,8.16,7.48,,,"pEC50 [3, 8]: 7.66"
"CC(C)C(=O)O[C@H]1[C@@H](OC(=O)C(C)C)[C@](C#N)(c2ccc3c(N)ncnn23)O[C@@H]1COP(=O)(N[C@@H](C)C(=O)OC1CC2(CCC2)C1)Oc1cccc2ccccc12 (single isomer, unassigned) [Example 86b]",,,,7.63,7.55,"pEC50 [3, 8]: 7.68; pEC50 [1, 9]: 8.02"
"CC(C)C(=O)O[C@H]1[C@@H](OC(=O)C(C)C)[C@](C#N)(c2ccc3c(N)ncnn23)O[C@@H]1COP(=O)(N[C@@H](C)C(=O)OCC1CC1)Oc1ccc(C(C)(C)C)cc1 (stereo partly drawn) [Example 104b, (2R,3R,4R,5R)-2-(4-aminopyrrolo[2,1-f][1,2,4]triazin-7-yl)-5-((((4-(tert-butyl)phenoxy)(((S)-1-(cyclopropylmethoxy)-1-oxopropan-2-yl)amino)phosphoryl)oxy)methyl)-2-cyanotetrahydrofuran-3,4-diyl bis(2-methylpropanoate)]",,,7.64,6.53,,pEC50 [4]: 7.24
"CCC(CC)COC(=O)[C@H](C)NP(=O)(OC[C@H]1O[C@@](C#N)(c2ccc3c(=N)n(COP(=O)(O)O)cnn23)[C@H](O)[C@@H]1O)Oc1ccc(C(C)(C)C)cc1 (stereo partly drawn) [Example 179, 2-ethylbutyl ((4-(tert-butyl)phenoxy)(((2R,3S,4R,5R)-5-cyano-3,4-dihydroxy-5-(4-imino-3-((phosphonooxy)methyl)-3,4-dihydropyrrolo[2,1-f][1,2,4]triazin-7-yl)tetrahydrofuran-2-yl)methoxy)phosphoryl)-L-alaninate]",6.07,8.11,7.78,,,
"CCC(CC)COC(=O)[C@H](C)NP(=O)(OC[C@H]1O[C@@](C#N)(c2ccc3c(N)ncnn23)[C@H](O)[C@@H]1O)Oc1ccc(C(C)(C)C)c2ccccc12 (single isomer, unassigned) [Example 170b]",,,,6.03,6.07,
"CC(C)C(=O)O[C@H]1[C@@H](OC(=O)C(C)C)[C@](C#N)(c2ccc3c(N)ncnn23)O[C@@H]1COP(=O)(N[C@@H](C)C(=O)OC1CC2(CCC2)C1)Oc1ccccc1 (single isomer, unassigned) [Example 46b]",,,,6.40,7.52,"pEC50 [1, 9]: 8.18"
"C[C@H](NP(=O)(OC[C@H]1O[C@@](C#N)(c2ccc3c(N)ncnn23)[C@H](O)[C@@H]1O)Oc1ccccc1)C(=O)OC1CC2(CCC2)C1 (single isomer, unassigned) [Example 44b]",,,,6.89,7.64,"pEC50 [1, 9]: 7.90"
"CCC(CC)COC(=O)[C@H](C)NP(=O)(OC[C@H]1O[C@@](C#N)(c2ccc3c(N)ncnn23)[C@H](OC(C)=O)[C@@H]1OC(C)=O)Oc1ccc(C(C)(C)C)c2ccccc12 (single isomer, unassigned) [Example 171a]",,,6.15,6.03,,
"CCC(=O)O[C@H]1[C@@H](OC(=O)CC)[C@](C#N)(c2ccc3c(N)ncnn23)O[C@@H]1COP(=O)(N[C@@H](C)C(=O)OCC(CC)CC)Oc1cccc2ccccc12 (single isomer, unassigned) [Example 79b]",,8.20,7.34,7.56,,"pEC50 [3, 8]: 7.66"
"CC(C)C(=O)O[C@H]1[C@@H](OC(=O)C(C)C)[C@](C#N)(c2ccc3c(=N)n(COP(=O)(O)O)cnn23)O[C@@H]1COP(=O)(N[C@@H](C)C(=O)OC1CC2(CCC2)C1)Oc1cccc2ccccc12 (stereo partly drawn) [Example 178, (2R,3R,4R,5R)-2-cyano-2-(4-imino-3-((phosphonooxy)methyl)-3,4-dihydropyrrolo[2,1-f][1,2,4]triazin-7-yl)-5-((((naphthalen-1-yloxy)(((S)-1-oxo-1-(spiro[3.3]heptan-2-yloxy)propan-2-yl)amino)phosphoryl)oxy)methyl)tetrahydrofuran-3,4-diyl bis(2-methylpropanoate)]",5.86,7.91,7.07,,,
"C[C@H](NP(=O)(OC[C@H]1O[C@@](C#N)(c2ccc3c(=N)n(COP(=O)(O)OCc4ccccc4)cnn23)[C@H](O)[C@@H]1O)Oc1cccc2ccccc12)C(=O)OC1CC2(CCC2)C1 (stereo partly drawn) [Example 176, spiro[3.3]heptan-2-yl ((((2R,3S,4R,5R)-5-(3-((((benzyloxy)(hydroxy)phosphoryl)oxy)methyl)-4-imino-3,4-dihydropyrrolo[2,1-f][1,2,4]triazin-7-yl)-5-cyano-3,4-dihydroxytetrahydrofuran-2-yl)methoxy)(naphthalen-1-yloxy)phosphoryl)-L-alaninate]",,,6.81,,,
"CCC(CC)COC(=O)[C@H](C)NP(=O)(OC[C@H]1O[C@@](C#N)(c2ccc3c(N)ncnn23)[C@H](OC(=O)C(C)C)[C@@H]1OC(=O)C(C)C)Oc1ccc(C(C)(C)C)c2ccccc12 (single isomer, unassigned) [Example 173b]",,,,,6.12,
"CCC(=O)O[C@H]1[C@@H](OC(=O)CC)[C@](C#N)(c2ccc3c(N)ncnn23)O[C@@H]1COP(=O)(N[C@@H](C)C(=O)OCC(CC)CC)Oc1ccc(C(C)(C)C)c2ccccc12 (single isomer, unassigned) [Example 172b]",6.06,,,,6.21,
"CCC(CC)COC(=O)[C@H](C)NP(=O)(OC[C@H]1O[C@@](C#N)(c2ccc3c(N)ncnn23)[C@H](OC(C)=O)[C@@H]1OC(C)=O)Oc1ccc(C(C)(C)C)c2ccccc12 (single isomer, unassigned) [Example 171b]",,,,6.38,6.27,
"CCC(=O)O[C@H]1[C@@H](OC(=O)CC)[C@](C#N)(c2ccc3c(N)ncnn23)O[C@@H]1COP(=O)(N[C@@H](C)C(=O)OCC(CC)CC)Oc1ccc(C(C)(C)C)c2ccccc12 (single isomer, unassigned) [Example 172a]",,,6.13,,,
"CCC(CC)COC(=O)[C@H](C)NP(=O)(OC[C@H]1O[C@@](C#N)(c2ccc3c(N)ncnn23)[C@H](OC(=O)C(C)C)[C@@H]1OC(=O)C(C)C)Oc1ccc(C(C)(C)C)c2ccccc12 (single isomer, unassigned) [Example 173a]",5.00,,6.09,,,
"CC(C)C(=O)O[C@H]1[C@@H](OC(=O)C(C)C)[C@](C#N)(c2ccc3c(N)ncnn23)O[C@@H]1COP(=O)(N[C@@H](C)C(=O)OC1CC2(CCC2)C1)Oc1cccc2ccccc12 (single isomer, unassigned) [Example 86a]",,8.10,,6.96,7.05,"pEC50 ([3]; human respiratory syncytial virus, HEp-2, 96 h, read-out: EC50 RSV HEP2 96, HEp-2 cells, RSV A2, MOI=4, 4 days, 96 well): 7.67"
"C[C@H](NP(=O)(OC[C@H]1O[C@@](C#N)(c2ccc3c(N)ncnn23)[C@H](O)[C@@H]1O)Oc1ccccc1)C(=O)OC1CC2(CCC2)C1 (single isomer, unassigned) [Example 44a]",6.99,8.04,7.66,,,
"CC(=O)O[C@H]1[C@@H](OC(C)=O)[C@](C#N)(c2ccc3c(N)ncnn23)O[C@@H]1COP(=O)(N[C@@H](C)C(=O)OCC1CC1)Oc1ccc(C(C)(C)C)cc1 (single isomer, unassigned) [Example 102b]",,,,7.07,7.59,pEC50 [4]: 7.37
"C[C@H](NP(=O)(OC[C@H]1O[C@@](C#N)(c2ccc3c(N)ncnn23)[C@H](O)[C@@H]1O)Oc1ccc(Cl)cc1)C(=O)OC1CCCCCCC1 (single isomer, unassigned) [Example 174b]",,,,,7.20,
